The numbers were not newly measured in patent US20230018600A1, “CONTROLLED RELEASE FORMULATIONS COMPRISING DROTAVERINE OR SALT THEREOF” (priority 2020, published 2023), which cites them from elsewhere.

SMILES strings stand for the structures.

The test system of series [1] is human isolated detrusor muscle. To be noted: induced plateau of contraction.
Assay in series [2]: not given
This is another data set of the same source.

As to `CCOc1ccc(/C=C2\NCCc3cc(OCC)c(OCC)cc32)cc1OCC` [Drotaverine, (Z)-1-(3,4-diethoxybenzylidene)-6,7-diethoxy-1,2,3,4-tetrahydroisoquinoline], the “oral LD50” value is > 1000 mg/Kg body weight. For the same compound, the “relaxation of human detrusor muscle contraction” value in series [1] is given as “significant concentration-dependent relaxation”. In series [2] (IR Drotaverine Tablets 80 mg), the “renal clearance as share of total plasma clearance” value is on record as 0.31+/−0.13%. Moreover, the onset of action in series [2] (after oral administration of 80 mg strength IR tablets) is ≤ 12 min. In addition, in series [2] (oral, 80 mg IR tablets), the “drug absorption from small intestine” value is reported as ~90%. In addition, the “absolute bioavailability, range” value in series [2] (oral, IR tablets 80 mg, subject-dependent range) is on record as 24.5-91%.
